Reference: patent publication EP0603240B1, “SAFENING HERBICIDAL PYRAZOLYLSULFONYLUREAS” (priority 1991, dated 1993)

Legend:
Format in all cases: in vivo
corn [1] = assay: Example 17, Procedure II: Herbicide No. 1 + vernolate (No. 11) with antidotes; settings: Table 17
Procedure: (§1) Containers were filled and compacted with a fumigated silt loam top soil to a depth of about 1.3 cm from the top of the container. A first container was designated as an untreated control, a second container was designated as a herbicide control, and a third container was designated as a herbicide + antidote test container. Each of the containers was seeded with a crop species. A measured amount of herbicide dispersed or dissolved in acetone was applied to a measured quantity of soil. To this same quantity of soil treated with herbicide, there was added a measured amount of antidote dispersed or dissolved in acetone. The quantity of soil treated with the herbicide and antidote was thoroughly mixed to incorporate the herbicide and antidote in the soil uniformly. The seed bed in the third container of soil was covered with the soil treated with the herbicide and antidote and the container was leveled. For each test series, the seed beds of the first and second containers were likewise covered by soil layers. the cover layer of the first container was not treated with herbicide or antidote.
The containers were then placed on a bench in a greenhouse and sub-irrigated as required for the duration of the test. […] Plant response is measured in terms of percent injury. Antidote efficacy is indicated as the difference in plant injury by the herbicide(s) without the antidote and with the antidote. […]

corn [2] = assay: Example 1, greenhouse Procedure II: antidotes against Herbicide No. 1; settings: Herbicide No. 1, Table 1
Procedure: as §1
(§2) The containers were then placed on a bench in a greenhouse and sub-irrigated as required for the duration of the test. […] Plant response is measured in terms of percent injury. Antidote efficacy is indicated as the difference in plant injury by the herbicide(s) without the antidote and with the antidote.
(§3) This procedure is the same as Procedure I, but modified in the manner that after incorporation of the chemicals (herbicide and antidote) the containers with the covered seedbed were treated with an initial overhead irrigation equivalent to 0.6 cm rainfall, then subsequently sub-irrigated as required on greenhouse benches.
(§4) In the series of greenhouse tests described below, for routine screening purposes the herbicide/antidote compositions were tested in crop/weed combinations involving corn as the crop and either or both of the weeds barnyardgrass (Echinochloa crusgalli), a monocotyledonous weed, and velvetleaf (Abutilon theophrasti), a dicotyledonous weed. In the tables below, these weeds are indicated by the symbols "BYG" and "VL", respectively.
This example was designed to investigate the antidotal efficacy of a plurality of antidotes against Herbicide No. 1 in corn in the presence of barnyard grass and velvetleaf. The antidotes used in this example were Antidote Nos. 1-10, 12, 13 and 15.
The test in this example was conducted as described above for Procedure II. The antidotes were applied to the soil cover layer by pipet after spraying on the herbicide followed by incorporation and simulated rain.

corn [3] = assay: Example 5, Procedure I: Herbicide No. 1 + alachlor (No. 7) with Antidote Nos. 15 and 16
Procedure: as §1, §2
(§5) This example describes tests with Antidote Nos. 15 and 16 to safen Herbicide No. 1 according to Procedure I using corn and the weeds barnyardgrass and velvetleaf as the test plants.
(§6) In the tests described in this example, the same procedure described in Example 4 was performed simultaneously therewith and under the same conditions, except that a co-herbicide, alachlor, was included in the same composition with Herbicide No. 1 and Antidote Nos. 15 and 16. Alachlor (Herbicide No. 7 herein) is the active ingredient in the commercial product LASSO® herbicide.

corn [4] = assay: Example 4, Procedure I: Antidote Nos. 15 and 16 against Herbicide No. 1
Procedure: as §1, §2, §5

corn [5] = assay: Example 3, Procedure I: antidotes against Herbicide No. 1
Procedure: as §1, §2
(§7) This example details the results of tests with Antidote Nos. 12, 15 and 16 to safen Herbicide No. 1 over application rates ranging from 4.48 kg/ha down to 0.56 kg/ha, in corn in the presence of barnyardgrass. Procedure I described above was used in these tests.

corn [6] = assay: Example 13, Procedure II: Herbicide No. 1 + acetochlor (No. 6) with dichloroacetamide antidotes; settings: Herbicide No.6 4.48 kg/ha alone, no antidote
Procedure: as §1, §2, §3
In this example a plurality of dichloroacetamide antidotes were tested for their safening efficacy against a herbicidal composition comprising Herbicide No. 1 and a co-herbicide, acetochlor (Herbicide No. 6) in corn in the presence of velvetleaf. The procedure used in this example was Procedure II above.

corn [7] = assay: Example 12, Procedure II: Herbicide No. 1 + acetochlor (No. 6) with thirteen antidotes; settings: Herbicide No.6 2.24 kg/ha alone, no antidote
Procedure: as §1, §2, §3
This example was designed to investigate the efficacy of thirteen different antidotes from different classes of chemistry as safeners against compositions of Herbicide No. 1 and acetochlor (Herbicide No. 6) as co-herbicide. Acetochlor is the active ingredient in the commercial herbicides GUARDIAN® and WENNER®.
The test procedure used in this example was Procedure II described above.

[8] = test system: barnyardgrass (Echinochloa crusgalli); assay: Example 4, Procedure I: Antidote Nos. 15 and 16 against Herbicide No. 1
Procedure: as §1, §2, §4, §5

[9] = test system: velvetleaf (Abutilon theophrasti); assay: as above
Procedure: as §1, §2, §4, §5

[10] = test system: barnyardgrass (Echinochloa crusgalli); assay: Example 3, Procedure I: antidotes against Herbicide No. 1
Procedure: as §1, §2, §4, §7

[11] = test system: barnyardgrass (Echinochloa crusgalli); assay: Example 5, Procedure I: Herbicide No. 1 + alachlor (No. 7) with Antidote Nos. 15 and 16
Procedure: as §1, §2, §4, §5, §6

[12] = test system: velvetleaf (Abutilon theophrasti); assay: as above
Procedure: as §1, §2, §4, §5, §6

[13] = Herbicide No.1 4.48 + No.7 0.56 kg/ha + antidote 0.56 kg/ha
[14] = Herbicide No.1 4.48 + No.7 0.56 kg/ha + antidote 2.24 kg/ha
[15] = Herbicide No.1 4.48 + No.7 2.24 kg/ha + antidote 0.56 kg/ha
[16] = Herbicide No.1 4.48 + No.7 2.25 kg/ha + antidote 2.24 kg/ha
[17] = Herbicide No.1 6.72 + No.7 0.56 kg/ha + antidote 0.56 kg/ha
[18] = Herbicide No.1 6.72 + No.7 0.56 kg/ha + antidote 2.24 kg/ha
[19] = Herbicide No.1 6.72 + No.7 2.24 kg/ha + antidote 0.56 kg/ha
[20] = Herbicide No.1 6.72 + No.7 2.25 kg/ha + antidote 2.24 kg/ha
[21] = Herb. No. 1 4.48 kg/ha + antidote 0.56 kg/ha
[22] = Herb. No. 1 4.48 kg/ha + antidote 2.24 kg/ha
[23] = Herb. No. 1 6.72 kg/ha + antidote 0.56 kg/ha
[24] = Herb. No. 1 6.72 kg/ha + antidote 2.24 kg/ha
[25] = Herb. No. 1 0.56 kg/ha + antidote 0.56 kg/ha
[26] = Herb. No. 1 0.56 kg/ha + antidote 2.24 kg/ha
[27] = Herb. No. 1 0.56 kg/ha + antidote 8.96 kg/ha
[28] = Herb. No. 1 1.12 kg/ha + antidote 0.56 kg/ha
[29] = Herb. No. 1 1.12 kg/ha + antidote 2.24 kg/ha
[30] = Herb. No. 1 1.12 kg/ha + antidote 8.96 kg/ha
[31] = Herb. No. 1 2.24 kg/ha + antidote 0.56 kg/ha
[32] = Herb. No. 1 2.24 kg/ha + antidote 2.24 kg/ha
[33] = Herb. No. 1 2.24 kg/ha + antidote 8.96 kg/ha
[34] = Herb. No. 1 4.48 kg/ha + antidote 8.96 kg/ha
[35] = antidote 8.96 kg/ha alone, no herbicide

O=C(C(Cl)Cl)N1CCCC12CCCC2 [Antidote No. 9, 1-Azaspiro[4,4]noname, 1-(dichloroacetyl)-]
safening of corn, assessment in words (corn [1]): best overall safening performance | safening of corn, assessment in words (corn [2]): best safening effect across quadruple treatments

CC1(C)OC(c2cccnc2)CN1C(=O)C(Cl)Cl (stereo not drawn) [Antidote No. 16, Pyridine, 3-[3-(dichloroacetyl)-2,2-dimethyl-5-oxazolidinyl]-]
safening of corn, assessment in words (corn [3]; Herbicide Nos. 1 and 7, Table 5): substantial safening of corn | safening of corn, assessment in words (corn [4]; Herbicide No. 1, Table 4): substantial safening of Herbicide No. 1 | safening of corn, assessment in words (corn [5]; Herbicide No. 1, Table 3): excellent protection for corn

CCOCN(C(=O)CCl)c1c(C)cccc1CC [Herbicide No.6]
% Injury Corn (corn [6]): 50% | % Injury Corn (corn [7]): 25%

CC1(C)OC(c2cccnc2)CN1C(=O)C(Cl)Cl (stereo not drawn) [compound 16]
% Injury Corn (corn [3]; [13]): 48% | % Injury Corn (corn [3]; [14]): 18% | % Injury Corn (corn [3]; [15]): 53% | % Injury Corn (corn [3]; [16]): 40% | % Injury Corn (corn [3]; [17]): 43% | % Injury Corn (corn [3]; [18]): 55% | % Injury Corn (corn [3]; [19]): 80% | % Injury Corn (corn [3]; [20]): 55% | % Injury BYG [8, 21]: 95% | % Injury BYG [8, 22]: 95% | % Injury BYG [8, 23]: 95% | % Injury BYG [8, 24]: 95% | % Injury VL [9, 21]: 95% | % Injury VL [9, 22]: 95% | % Injury VL [9, 23]: 95% | % Injury VL [9, 24]: 95% | % Injury BYG [10, 25]: 65% | % Injury BYG [10, 26]: 60% | % Injury BYG [10, 27]: 50% | % Injury BYG [10, 28]: 70% | % Injury BYG [10, 29]: 80% | % Injury BYG [10, 30]: 85% | % Injury BYG [10, 31]: 85% | % Injury BYG [10, 32]: 90% | % Injury BYG [10, 33]: 80% | % Injury BYG [10, 21]: 75% | % Injury BYG [10, 22]: 80% | % Injury BYG [10, 34]: 95% | % Injury BYG [10, 35]: 0% | % Injury Corn (corn [4]; [21]): 70% | % Injury Corn (corn [4]; [22]): 15% | % Injury Corn (corn [4]; [23]): 35% | % Injury Corn (corn [4]; [24]): 30% | % Injury Corn (corn [5]; [25]): 0% | % Injury Corn (corn [5]; [26]): 0% | % Injury Corn (corn [5]; [27]): 0% | % Injury Corn (corn [5]; [28]): 0% | % Injury Corn (corn [5]; [29]): 0% | % Injury Corn (corn [5]; [30]): 0% | % Injury Corn (corn [5]; [31]): 5% | % Injury Corn (corn [5]; [32]): 0% | % Injury Corn (corn [5]; [33]): 0% | % Injury Corn (corn [5]; [21]): 5% | % Injury Corn (corn [5]; [22]): 5% | % Injury Corn (corn [5]; [34]): 5% | % Injury Corn (corn [5]; [35]): 0% | % Injury BYG [11, 13]: 100% | % Injury BYG [11, 14]: 100% | % Injury BYG [11, 15]: 100% | % Injury BYG [11, 16]: 100% | % Injury BYG [11, 17]: 95% | % Injury BYG [11, 18]: 100% | % Injury BYG [11, 19]: 100% | % Injury BYG [11, 20]: 100% | % Injury VL [12, 13]: 95% | % Injury VL [12, 14]: 95% | % Injury VL [12, 15]: 98% | % Injury VL [12, 16]: 98% | % Injury VL [12, 17]: 98% | % Injury VL [12, 18]: 95% | % Injury VL [12, 19]: 98% | % Injury VL [12, 20]: 99%
